In article PMC9538480, “Rutin bioconjugates as potential nutraceutical prodrugs: An in vitro and in ovo toxicological screening” (Frontiers in Pharmacology, 2022):
≈ marks a conversion by molar mass, not a printed value.

What was measured:
HaCaT cells [1] = assay type: cell-based, human; settings: 24 h; for effect on cell viability: 1-100 µM
Method: (§1) To evaluate the in vitro effect of rutin esters (REs) on cells’ viability, the MTT technique was applied following a 24 h treatment of H9c2(2-1), HepaRG, and HaCaT cells with RUT-O and RUT-L (1, 10, 25, 50, and 100 µM). The parent compounds (PCs)—RUT, OA, and LA were also tested. DMSO was used as solvent for all test compounds (RUT, OA, LA, RUT-O, and RUT-L). The impact of DMSO at tested concentrations (1, 10, 25, 50, and 100 µM) was also assessed in vitro. At the end of the treatment, fresh media (100 µl) and the MTT reagent (10 µl) were added in each well, and the plates were incubated for 3 h at 37°C. The final steps were as follows: addition of the solubilization solution (100 µl/well), incubation of the plates at room temperature for 30 min, protected from light, and absorbance measurement at two wavelengths (570 and 630 nm) using Cytation 5 (BioTek Instruments Inc., Winooski, VT, United States). The results were expressed as percentage (%) of viable cells normalized to control cells (unstimulated cells).

chorioallantoic membrane = experiment: HET-CAM in ovo irritant potential; assay type: in vivo, Gallus domesticus; settings: for vascular irritation signs (hemorrhage, lysis, coagulation) in words: 5 min after application; for tC = time of coagulation / tH = time of hemorrage / tL = time of lysis / Irritation score (IS): test compounds 100 µM, 5 min observation; for Irritation score (IS): 600 μl
Method: To perform a toxicological screening and to verify the irritant potential of the RUT-O and RUT-L were used chicken eggs (Gallus domesticus). Specifically, the eggs were prepared as follows: 1) after being washed and disinfected with 70% ethanol (v/v), the eggs were placed in an incubator in a horizontal posture; 2) on the fourth day of incubation, a small hole was made through which a volume of approximately 7–8 ml of albumen was extracted in order to facilitate the detachment of the chorioallantoic membrane from the inner shell of the egg; 3) on the fifth day of incubation, a window was cut in the upper part of the egg to allow the visualization of the blood vessels, which was then covered with adhesive tape and the eggs were placed in the incubator until the day of the beginning of the experiment. Using the Hen’s Egg Test—Chorioallantoic Membrane (HET-CAM) assay, the potential in ovo toxicity of the samples was evaluated. […] [Kis et al., 2022]). […] In order to observe any vascular effects, a stereomicroscope (Discovery 8 Stereomicroscope Zeiss, Göttingen, and Germany) was used, and images were taken with a Zeiss Axio CAM 105 color camera before and 5 min after the application of the samples. The same experimental protocol was applied for the parent compounds—RUT, OA, and LA.

[2] = tested on: reconstructed human epidermis 3D tissues—EpiDerm™ (EPI-212); settings: for tissue viability compared to negative control (DPBS-treated inserts) / skin irritation classification (OECD Test Guideline 439, irritant if viability below 50%): 100 µM; for skin irritation classification (OECD Test Guideline 439, irritant if viability below 50%): EpiDerm
From the text: The reconstructed human epidermal model—EpiDerm™ (EPI-212, [MatTek Corporation protocol, 2021], Bratislava, Slovakia) (Lot no. 36155) is a multilayered differentiated human epidermis model made of normal human-derived epidermal keratinocytes, validated as test method for the OECD 439 (In vitro skin irritation: reconstructed human epidermis test methods) ([OECD, 2021]). The EpiDerm™ tissues (prepared as inserts) that served as model for the skin irritation test together with the specific culture media (assay medium—EPI-100-NMM), Dulbecco’s phosphate buffered saline (DPBS) (negative control), sodium dodecyl sulphate (SDS) 5% and the MTT kit were provided by the manufacturer (MatTek Corporation, Bratislava, Slovakia).
The in vitro skin irritation test (EPI-212-SIT) was performed according to the manufacturer’s recommendations and to the data from the literature [MatTek Corporation protocol—In vitro EpiDerm Skin Irritation Test (EPI-200-SIT); [Kandarova et al., 2018]]. […] The same protocol was performed for the positive (5% SDS in saline) and negative (sterile DPBS) controls. The tissue viability (%) was calculated according to the formulas specified in the literature ([Pinzaru et al., 2021]).

H9c2(2-1) cells [3] = experiment: in vitro; assay type: cell-based, rat; settings: H9c2(2-1), 24 h; for cell viability normalized to control: MTT
Method: as §1

HepaRG cells [4] = experiment: Wound healing (scratch) assay; assay type: cell-based, human; settings: 25 µM, 24 h, control 44.31%
Method: (§2) The influence of RUT-O and RUT-L on the migration of cells was assessed by performing the wound healing (scratch) assay. In brief, the cells (10^5 cells/ml/well) were cultured in 24-well plates (Corning Costar), and an automatic scratch was made in each well by using the AutoScratchTM Wound Making Tool provided by BioTek® Instruments Inc. (Winooski, VT, United States). The cells were further treated with the flavonoid esters at the concentration of 25 μM for 24 h, and representative images of the wound area were taken at 0 and 24 h using Cytation 1 (BioTek® Instruments Inc., Winooski, VT, United States). The wound widths were measured using Gen5 TM Microplate Data Collection and Analysis Software (BioTek® Instruments Inc., Winooski, VT, United States). The effects on cell migration were quantified by calculating the wound healing rates (%) using a formula presented in our previous studies ([[…] et al., 2020]).

[5] = tested on: H9c2(2-1), HaCaT, and HepaRG cells; assay type: cell-based; settings: 100 µM, 24 h; for round cells floating in the culture medium: bright field; for impact on cells' adherence or confluency: compared to control cells
Method: To verify the impact of PCs (RUT, OA and LA) and REs (RUT-O and RUT-L) on the morphology and confluence of H9c2(2-1), HaCaT, and HepaRG cells, a microscopic examination was performed. The cells were observed under bright field illumination and photographed at the end of the 24 h treatment period using Cytation 1 (BioTek Instruments Inc., Winooski, VT, United States). The photographs were processed using the Gen5™ Microplate Data Collection and Analysis Software (BioTek Instruments Inc., Winooski, VT, United States).

H9c2(2-1) cells [6] = assay type: cell-based, rat; settings: 100 µM, 24 h, Hoechst 33342
Method: (§3) The potential toxicity of 100 μM RUT, OA, LA, RUT-O, and RUT-L at nuclear level was tested by applying the Hoechst 33342 staining assay protocol according to the manufacturer’s (Thermo Fisher Scientific, Inc., Waltham, MA, United States) recommendations. In brief, H9c2(2-1), HepaRG, and HaCaT cells were seeded in 12-well plates (10^5 cells/1.5 ml/well) and treated with the test compounds for 24 h. After the stimulation period, the media was removed, and the staining solution diluted 1:2000 in PBS was added (500 µl/well). The plates were incubated for 10 min at room temperature, protected from light. Finally, the staining solution was washed with PBS and the pictures were taken using Cytation 1 (BioTek Instruments Inc., Winooski, VT, United States) and analyzed by the means of Gen5™ Microplate Data Collection and Analysis Software (BioTek Instruments Inc., Winooski, VT, United States). Staurosporine (STP) 5 µM was selected as positive control for apoptosis.

HepaRG cells [7] = experiment: in vitro; assay type: cell-based, human; settings: 100 µM
Method: as §1

HepaRG cells [8] = assay type: cell-based, human; settings: 100 µM, 24 h, Hoechst 33342
Method: as §3

HaCaT cells [9] = assay type: cell-based, human; settings: 100 µM, 24 h, Hoechst 33342
Method: as §3

HaCaT cells [10] = experiment: Wound healing (scratch) assay; assay type: cell-based, human; settings: 25 µM, 24 h
Method: as §2

HaCaT cells [11] = tested on: HaCaT cells; parameters: method as in Deepika et al., 2019; settings: ref Deepika et al., 2019; cited from earlier work
H9c2(2-1) cells [12] = experiment: Wound healing (scratch) assay; assay type: cell-based, rat; settings: 25 µM, 24 h, control 45.71%
Method: as §2

HUVEC endothelial cells = settings: ref Bass et al., 2020; cited from earlier work
in vitro [13] = assay type: cell-based, rat; settings: rat
Method: as §1

in vitro [14] = assay type: cell-based, human; settings: human
Method: as §1

[15] = lowest concentrations (1 and 10 µM)

Row | SMILES | vascular irritation signs (hemorrhage, lysis, coagulation) in words (chorioallantoic membrane) | tC = time of coagulation (chorioallantoic membrane) [s] | tH = time of hemorrage (chorioallantoic membrane) [s] | tL = time of lysis (chorioallantoic membrane) [s] | Irritation score (IS) (chorioallantoic membrane) | tissue viability compared to negative control (DPBS-treated inserts) ([2]; EpiDerm inserts) | skin irritation classification (OECD Test Guideline 439, irritant if viability below 50%) [2] | wound healing rate (HepaRG cells [4]) [%] | round cells floating in the culture medium [5] | impact on cells' adherence or confluency [5] | nuclear morphology changes (H9c2(2-1) cells [6]) | nuclear morphology changes (HepaRG cells [8]) | nuclear morphology changes (HaCaT cells [9]) | effect on cell viability (HaCaT cells [1]) | effect on cell viability (H9c2(2-1) cells [3]; [15]) | other results
1 | CCCCCCCC/C=C\CCCCCCCC(=O)OC1C(C)OC(OCC2OC(Oc3c(-c4ccc(O)c(O)c4)oc4cc(O)cc(O)c4c3=O)C(O)C(O)C2O)C(O)C1O (stereo not drawn) [RUT-O, rutin oleate] | no significant irritant effects | 286 | 300 | 291 | 0.70 | over 100% | non-irritant | 27.18 | several round cells floating in the culture medium | no negative impact | several apoptotic-like features | chromatin condensation | nuclear fragmentation and formation of apoptotic bodies |  |  | cell viability normalized to control (HaCaT cells [1]; 100 µM, MTT): 78.32%; cell viability normalized to control (H9c2(2-1) cells [3]; 50 µM): 79.03%; cell viability normalized to control (H9c2(2-1) cells [3]; 100 µM): 77.53%; cell viability normalized to control (HepaRG cells [7]; HepaRG, 24 h, MTT): 83.17%
2 | CCCCCCCCCCCCOS(=O)(=O)[O-].[Na+] [SDS 1%, sodium dodecyl sulphate] | the most obvious signs of vascular irritation | 15 | 22 | 20 | 19.78 |  |  |  |  |  |  |  |  |  |  | tissue viability ([2]; EpiDerm inserts, positive control 5% solution): 10%
3 | C[C@@H]1O[C@@H](OC[C@H]2O[C@@H](Oc3c(-c4ccc(O)c(O)c4)oc4cc(O)cc(O)c4c3=O)[C@H](O)[C@@H](O)[C@@H]2O)[C@H](O)[C@H](O)[C@H]1O [RUT, Rutin] | No signs of vascular irritation |  |  |  |  |  |  |  |  | no negative impact | no significant nuclear alterations | no significant nuclear alterations | no significant nuclear alterations | not affected | stimulatory effect | effect on cell viability (H9c2(2-1) cells [3]; highest concentrations (50 and 100 µM)): did not decrease cells viability; effect on wound regeneration (HaCaT cells [10]): no impact on wound regeneration; IC50, inhibitory effect on HaCaT cells' growth (HaCaT cells [11]): 60 µg/mL (≈ 98.3 µM); wound healing rate (H9c2(2-1) cells [12]): 37.73%
4 | CCCCC/C=C\C/C=C\CCCCCCCC(=O)O[C@@H]1[C@@H](O)[C@@H](O)[C@H](OC[C@H]2O[C@@H](Oc3c(-c4ccc(O)c(O)c4)oc4cc(O)cc(O)c4c3=O)[C@H](O)[C@@H](O)[C@@H]2O)O[C@H]1C [RUT-L, rutin linoleate] | no significant irritant effects | 290 | 300 | 295 | 0.49 | over 100% | non-irritant | 22.77 |  | no negative impact | No significant changes | No significant changes | No significant changes | stimulatory effect at all concentrations | stimulatory effect | cell viability normalized to control (HepaRG cells [7]): 101.25%
5 | CCCCCCCC/C=C\CCCCCCCC(=O)O [OA, oleic acid] | No signs of vascular irritation |  |  |  |  |  |  |  | several round cells floating in the culture medium | no negative impact | no significant nuclear alterations | no significant nuclear alterations | no significant nuclear alterations |  |  | doses inducing cytotoxicity in HUVEC endothelial cells (HUVEC endothelial cells): above 200 µM; viability at 24 h, 50 µM (in vitro [13]): 89.8%; viability at 24 h, 100 µM (in vitro [13]): 82.9%; viability at 24 h, 50 µM (in vitro [14]): 87.9%; viability at 24 h, 100 µM (in vitro [14]): 76.4%
